The values below come from patent US6221914A, “Sulfonamide bridging compounds that inhibit tryptase activity” (Array Biopharma Inc., priority 1998, dated 2001).

One may read the Ki as the dissociation constant of the complex between target and ligand, obtained from inhibition or displacement.

Common to all, as to type: biochemical
In one experiment the target is Human lung tryptase. The experiment is described as follows: Ki determination, human lung tryptase (Tosyl-Gly-Pro-Arg-pNA substrate). As to conditions: 50 mM Tris-HCl pH 8.0, 37° C., 1 nM tryptase, 320 μM GPR-pNA; read-out: Experimentally Determined Ki, Tryptase. The method, then: (§1) Protease inhibition was assayed according to published procedures with minor modifications using various proteases and specific chromogenic peptide p-nitroanilide substrates. Assays were performed in Costar ultra-low cluster 96-well microtiter plate (Costar Corning Corp., Cambridge Mass.). Each protease was incubated with various concentrations of the test compound for 15 min. at 37° C. or as otherwise indicated, in specific assay buffer, and the residual activity was then measured by addition of the substrate. p-Nitroaniline produced by the proteolysis was determined by measuring the change in absorbance at 405 nm on a SpectraMAX 340 plate reader (Molecular devices, Sunnyvale, Calif.).
(§2) 1. The inhibition constant, Ki is calculated from individual data points using the equation for a tight-binding inhibitor (See Beith, "Proteinase Inhibitors-Proceedings of 2nd Int. Res. Conference", Fritz, et al. eds, New York, p.4463-4469 (1974)):
(§3) vi /vo [((Ki '+[I]+[E]o)^2 -4 [I]o
(§4) [E]o)^1/2 (Ki '+[I]o -[E]o)]/2[E]o
(§5) where Ki ' is apparent inhibition constant; vi and vo are the inhibited and uninhibited rates, respectively; [I]o and [E]o are the total concentrations of inhibitor and enzyme, respectively.
(§6) [note: [E]o is determined by active site titration of enzyme]
(§7) The Ki values are obtained by correcting Ki ' values for the effect of substrate concentration according to: [formula]
(§8) 2. Other inhibition data (Ki >>[E]o), the Ki is calculated from using the equations for a competitive inhibitor: [formula]
Human lung tryptase purchased from Cortex Biochem (San Leandro, Calif.) was purified further on a Superdex 200 gel-filtration column. The active-site concentration of the enzyme was determined by spectrophotometric titration with 4-nitrophenyl 4'-guanidinobenzoate according to Schwartz, et al., J. Immunol., 114, 2304-2311 (1990). Tryptase activity was measured according to the procedures of Schwartz, et al., J. Biol. Chem., 261, 7372-7379 (1986) (See also, Schwartz, L. B., Methods In Enzymology, 244, 88 (1994)) with minor modifications, using Tosyl-Gly-Pro-Arg-p-nitroanilide ("GPR-pNA", Sigma Chemical Co., St. Louis, Mo., T-1637) as a chromogenic substrate. The reaction was performed in 50 mM Tris-HCl, pH 8.0, containing 150 mM NaCl and 0.02% Triton X-100 at 37° C. in Costar ultra-low cluster 96-well microtiter plates (Costar Corning Corp., Cambridge, Mass.). The amount of pNA produced by tryptase was determined by measuring the change in absorbance at 405 nm on a SpectraMAX 340 plate reader (Molecular devices, Sunnyvale, Calif.). The Km for the substrate was determined by Lineweaver-Burk analysis from initial velocities of substrate hydrolysis. The inhibition assay was carried out in a total volume of 200 μL. Tryptase (30 μL- final concentration 1 nM) was incubated with various concentrations of sample compound (50 μL) to be tested in the above assay buffer for 5 min. The reaction was started by the addition of substrate GPR-pNA (40 μL-final concentration 320 μM), and the residual activity was measured after 15 min. of incubation. The inhibition constant, Ki, was determined by fitting the inhibition data to a two-site competitive binding equation using data analysis program GraphPad PRISM (GraphPad Software, Inc., San Diego, Calif.).
(§9) The inhibition constant (Ki) of the test compounds against each proteolytic enzyme was determined according to Zitnik et al., Biochem. Biophys. Res. Commun. 232, 687-697 (1997)).

Experiment [1] addresses T1, Bovine pancreatic Trypsin (Bos taurus, UniProt P00760).
T1 construct: from tissue; host or cells: bovine pancreas
T1 sequence (P00760 24-246): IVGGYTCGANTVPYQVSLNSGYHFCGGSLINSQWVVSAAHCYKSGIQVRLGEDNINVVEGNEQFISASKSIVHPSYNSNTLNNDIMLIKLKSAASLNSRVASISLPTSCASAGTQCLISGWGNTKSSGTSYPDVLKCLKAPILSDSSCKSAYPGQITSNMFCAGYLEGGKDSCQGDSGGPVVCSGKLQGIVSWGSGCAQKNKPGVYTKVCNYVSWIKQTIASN
The experiment is described as follows: Ki determination, bovine pancreatic trypsin (N-a-Benzoyl-L-Arg-pNA). Particulars: 50 mM Tris-HCl, pH 8.2, 20 mM CaCl2; read-out: Experimentally Determined Ki, Trypsin. The method, then: as §1, §2, §3, §4, §5, §6, §7, §8
Bovine pancreatic Trypsin (TPCK-treated) activity was determined by using N-a-Benzoyl-L-Arg-pNA in 50 mM Tris-HCl, pH 8.2, 20 mM CaCl2 (See Somorin, et al., J. Biochem. 85, 157-162 (1979)).
as §9

A further experiment addresses T2, Human plasma thrombin (Homo sapiens, UniProt P00734).
T2 construct: from tissue; host or cells: human plasma
The experiment is described as follows: Ki determination, human plasma thrombin (H-D-Phe-Pip-Arg-pNA). Particulars: 50 mM Tris-HCl, pH 8.3, 100 mM NaCl, 1% BSA; read-out: Experimentally Determined Ki, Thrombin. The protocol:
as §1, §2, §3, §4, §5, §6, §7, §8
Human plasma thrombin activity was determined by using H-D-Phe-Pip-Arg-pNA in 50 mM Tris-HCl, pH 8.3, 100 mM NaCl, 1% BSA (See Lottenberg, et al. Meth. Enzymol. 80, 341-361 (1981)).
as §9

Experiment [2] deals with T3, Bovine Pancreatic Chymotrypsin (Bos taurus, UniProt P00766).
T3 construct: from tissue; host or cells: bovine pancreas
Kind of experiment: Ki determination, bovine pancreatic chymotrypsin (N-Suc-Ala-Ala-Pro-Phe-pNA). As to conditions: 100 mM Tris-HCl, pH 7.8, 10 mM CaCl2; read-out: Experimentally Determined Ki, Chymotrypsin. The method, then: as §1, §2, §3, §4, §5, §6, §7, §8
Bovine Pancreatic Chymotrypsin activity was determined by using N-Suc-Ala-Ala-Pro-Phe-pNA in 100 mM Tris-HCl, pH 7.8, 10 mM CaCl2 (See Delmar, et al., J. Biochem. 85, 157-162 (1979)).
as §9

The target in another experiment is r-tissue kallikrein (Homo sapiens, UniProt P06870). The experiment is described as follows: Ki determination, r-tissue kallikrein (DL-Val-Leu-Arg-pNA). Particulars: 50 mM Tris-HCl, pH 7.8, 200 mM NaCl, 0.05% BSA; read-out: Experimentally Determined Ki, Tissue Kallikrein. The protocol:
as §1, §2, §3, §4, §5, §6, §7, §8
I. Human Plasma and r-Tissue Kallikrein
Human plasma and r-tissue kallikrein activity were determined in 50 mM Tris-HCl, pH 7.8, 200 mM NaCl, 0.05% BSA by using H-D-Prolyl-Phe-Arg-pNA and DL-Val-Leu-Arg-pNA, respectively (See Lottenberg, et al., Meth. Enzymol. 80, 341-361 (1981)).
as §9

Chain of r-tissue kallikrein (P06870 25-262): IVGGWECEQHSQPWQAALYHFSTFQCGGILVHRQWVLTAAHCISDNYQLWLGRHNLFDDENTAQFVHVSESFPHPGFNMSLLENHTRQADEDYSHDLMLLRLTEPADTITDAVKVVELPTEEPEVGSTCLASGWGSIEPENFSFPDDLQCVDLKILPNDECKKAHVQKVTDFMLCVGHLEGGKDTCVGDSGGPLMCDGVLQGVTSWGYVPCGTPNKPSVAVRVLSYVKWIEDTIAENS

On to `N=C(N)c1cccc(S(=O)(=O)NCc2ccc(OCCOc3ccc(CNS(=O)(=O)c4cccc(C(=N)N)c4)cc3)cc2)c1` [Example 51, 1,2-Bis-{4-[(3-carbamimidoyl-benzenesulfonylamino)-methyl]-phenoxy}-ethane], for which the inhibition constant (Ki) on Human lung tryptase was 0.03 µM; in experiment [1], 5.2 µM; on Human plasma thrombin, > 100 µM; in experiment [2] it was > 100 µM; at r-tissue kallikrein, > 100 µM.
As for `N=C(N)c1ccc(C(=O)NCc2ccc(OCCCCCCCOc3ccc(CNC(=O)c4ccc(C(=N)N)cc4)cc3)cc2)cc1` [Example 58, 1,7-Bis-{4-[(4-carbamimidoyl-benzenecarbonylamino)-methyl]-phenoxy}-heptane], the Ki at Human lung tryptase is 0.001 µM; in experiment [1] it was 1.5 µM; at Human plasma thrombin, > 100 µM; in experiment [2], > 100 µM; at r-tissue kallikrein, > 100 µM.
As to `N=C(N)c1cccc(S(=O)(=O)NCc2ccc(COCc3ccc(CNS(=O)(=O)c4cccc(C(=N)N)c4)cc3)cc2)c1` [Example 53, 1,3-Bis-{4-[(3-carbamimidoyl-benzenesulfonylamino)-methyl]-phenyl}-2-oxapropane], the Ki at Human lung tryptase was 0.1 µM; in experiment [1] it was 3 µM; at Human plasma thrombin, > 100 µM; in experiment [2], > 100 µM; on r-tissue kallikrein, > 100 µM.
With `N=C(N)c1ccc2[nH]c(CC(=O)NCc3ccc(OCCCCOc4ccc(CNC(=O)Cc5nc6cc(C(=N)N)ccc6[nH]5)cc4)cc3)nc2c1` [Example 109], the Ki at Human lung tryptase was 0.008 µM; in experiment [1], 11.4 µM; on Human plasma thrombin, > 100 µM; in experiment [2], 14.7 µM; at r-tissue kallikrein, > 100 µM.
Consider `N=C(N)c1ccc(C(=O)NCc2ccc(OCCOc3ccc(CNC(=O)c4ccc(C(=N)N)cc4)cc3)cc2)cc1` [Example 64, 1,2-Bis-{4-[(4-carbamimidoyl-benzoylamino)-methyl]-phenoxy}-ethane], for which the Ki at Human lung tryptase was 0.05 µM; in experiment [1], 1.4 µM; at Human plasma thrombin, > 100 µM; in experiment [2], > 100 µM; at r-tissue kallikrein it was > 100 µM.
Turning to `N=C(N)c1cccc(C(=O)NCc2ccc(OCCCCCCOc3ccc(CNC(=O)c4cccc(C(=N)N)c4)cc3)cc2)c1` [Example 57, 1,6-Bis-{4-[(3-carbamimidoyl-benzenecarbonylamino)-methyl]-phenoxy}-hexane], the Ki on Human lung tryptase is 0.01 µM; in experiment [1] it was 1.7 µM; on Human plasma thrombin, > 100 µM; in experiment [2], > 100 µM; on r-tissue kallikrein, > 100 µM.
In the case of `N=C(N)c1ccc(C(=O)NCc2ccc(COCc3ccc(CNC(=O)c4ccc(C(=N)N)cc4)cc3)cc2)cc1` [Example 66, 1,3-Bis-{4-[(4-carbamimidoyl-benzenecarbonylamino)-methyl]-phenyl}-2-oxapropane], the Ki on Human lung tryptase is 0.38 µM; in experiment [1], 0.51 µM; on Human plasma thrombin, > 100 µM; in experiment [2], > 100 µM; on r-tissue kallikrein, > 100 µM.
With `N=C(N)c1ccc(C(=O)NCc2ccc(OCCCCOc3ccc(CNC(=O)c4ccc(C(=N)N)cc4)cc3)cc2)cc1` [Example 60, 1,4-Bis-{4-[(4-carbamimidoyl-benzenecarbonylamino)-methyl]-phenoxy}-butane], the Ki on Human lung tryptase is 0.0002 µM; in experiment [1], 1.5 µM; on Human plasma thrombin it was > 100 µM; in experiment [2], > 100 µM; on r-tissue kallikrein, > 100 µM.
For `CN(Cc1ccc(OCCCOc2ccc(CN(C)S(=O)(=O)c3cccc(C(=N)N)c3)cc2)cc1)S(=O)(=O)c1cccc(C(=N)N)c1` [Example 68, 1,3-Bis-{4-[(3-carbamimidoyl-benzenesulfonyl-[N-methyl]-amino)-methyl]-phenoxy}-propane], the Ki at Human lung tryptase is 0.02 µM; in experiment [1], 3.2 µM; on Human plasma thrombin, > 100 µM; in experiment [2], > 100 µM; on r-tissue kallikrein it was > 100 µM.
As to `N=C(N)c1ccc2sc(C(=O)NCc3ccc(OCCCOc4ccc(CNC(=O)c5cc6cc(C(=N)N)ccc6s5)cc4)cc3)cc2c1` [Example 117, 1,3-Bis-{4-[(5-carbamidoyl-2-benzthiophenyl-carbamido)-methyl]-phenoxy}-propane], the Ki at Human lung tryptase was 0.012 µM; in experiment [1], 13 µM; at Human plasma thrombin, > 100 µM; in experiment [2] it was 40 µM; on r-tissue kallikrein, > 100 µM.
As for `N=C(N)c1cccc(C(=O)NCc2cccc(OCCCCCOc3cccc(CNC(=O)c4cccc(C(=N)N)c4)c3)c2)c1` [Example 77, 1,5-Bis-{3-[(3-carbamimidoyl-benzenecarbonylamino)-methyl]-phenoxy}-pentane], the Ki was 0.01 µM at Human lung tryptase; 1.4 µM in experiment [1]; > 100 µM at Human plasma thrombin; > 100 µM in experiment [2]; 32 µM on r-tissue kallikrein.
In the case of `N=C(N)c1ccc(C(=O)NCc2ccc(OCCCOc3ccc(CNS(=O)(=O)c4cccc(C(=N)N)c4)cc3)cc2)cc1` [Example 86, 4-Carbamimidoyl-N-[4-(3-{4-[(3-carbamimidoyl-benzenesulfonylamino)-methyl]-phenoxy}-propoxy)-benzyl]-benzamide], the Ki was 0.003 µM at Human lung tryptase; 2.1 µM in experiment [1]; > 100 µM on Human plasma thrombin; > 100 µM in experiment [2]; > 100 µM on r-tissue kallikrein.
As to `N=C(N)c1cccc(S(=O)(=O)NCc2ccc(OCCCCCCOc3ccc(CNS(=O)(=O)c4cccc(C(=N)N)c4)cc3)cc2)c1` [Example 43, 1,6-Bis-{4-[(3-carbamimidoyl-benzenesulfonylamino)-methyl]-phenoxy}-hexane], the Ki at Human lung tryptase was 0.11 µM; in experiment [1], 3.6 µM; on Human plasma thrombin, > 100 µM; in experiment [2], 20 µM; on r-tissue kallikrein, > 100 µM.
